PMC7913148, “Anti-Cholinesterase Combination Drug Therapy as a Potential Treatment for Alzheimer’s Disease” (Brain Sciences, 2021)
Structures can show the parent of a compound that is named as a salt.

Key:
[1] = molecular target: T1, Torpedo californica acetylcholinesterase (tcAChE) (Tetronarce californica, UniProt P04058); experiment: biochemical; settings: individual drug; Torpedo californica AChE (tc); read-out: Acetycholinesterase Inhibition (IC50)
T1 construct: purchased Sigma-Aldrich (Poole, UK)
T1 sequence (P04058 22-586): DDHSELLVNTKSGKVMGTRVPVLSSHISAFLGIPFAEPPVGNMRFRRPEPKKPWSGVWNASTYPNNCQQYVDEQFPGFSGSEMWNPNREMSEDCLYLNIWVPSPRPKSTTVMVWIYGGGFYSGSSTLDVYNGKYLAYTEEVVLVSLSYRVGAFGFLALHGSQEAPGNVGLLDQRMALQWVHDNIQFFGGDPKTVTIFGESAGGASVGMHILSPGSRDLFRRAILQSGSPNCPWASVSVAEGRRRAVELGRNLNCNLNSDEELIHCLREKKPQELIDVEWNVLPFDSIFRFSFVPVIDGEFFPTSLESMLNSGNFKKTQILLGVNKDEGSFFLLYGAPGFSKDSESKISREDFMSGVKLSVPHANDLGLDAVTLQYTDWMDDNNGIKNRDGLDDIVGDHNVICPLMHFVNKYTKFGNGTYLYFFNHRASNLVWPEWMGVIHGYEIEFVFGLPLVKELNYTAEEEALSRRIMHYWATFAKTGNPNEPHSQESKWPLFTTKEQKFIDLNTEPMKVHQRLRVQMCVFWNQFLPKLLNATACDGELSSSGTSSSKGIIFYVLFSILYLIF
Procedure: A microtiter plate version of the Ellman’s assay was used to determine the activity of human and Torpedo californica acetylcholinesterase enzymes [27]. Assays were undertaken in the presence of either individual drugs or two-drug combinations. Each assay data point within a 96-well plate contained 40 µL of 0.01 M DTNB, 46 µL of 0.1 M (pH 8.0) phosphate buffer, 2 µL of 0.075 M ATCI substrate, and 10 µL of drug or dual-drug combination. […] Enzymatic cleavage of the ATCI substrate was initiated by addition of 2 µL of 0.5 U/mL AChE enzyme. […] Under these assay conditions, a final color change was reached (results not included) such that an end-point assay measurement was taken [29].
These scoping experiments enabled us to quantify an approximate IC50 for subsequent dose-response experiments. […] These concentrations were also used for dual-drug combination experiments. Experiments undertaken in the absence of inhibitor were designated as 100% enzymatic activity. Assays were performed in duplicates from which a mean was calculated.
Percentage inhibition of AChE from in vitro assays in response to application of individual or dual-drug ChEIs were calculated using CompuSyn software (http://www.combosyn.com/index.html). […]

[2] = tested on: SH-SY5Y neuroblastoma cells; experiment: MTT cytotoxicity assay; assay type: cell-based, human; settings: SH-SY5Y, MTT, 48 h; significant change from control
Procedure: (§1) A MTT assay was used to assess the cytotoxicity of either the individual drugs or dual-drug combinations using the SH-SY5Y neuroblastoma cell line. SH-SY5Y cells were seeded in 96-well plates (passage #15) at a cell density of 3 × 10^4 cells/well in DMEM containing 10% FBS. […] Plates were incubated for 4 h at 37 °C, before removal of the media and replacement with 1:1 (v/v) isopropanol:DMSO. […] Cell viability of cells treated with drugs was quantified by comparison to untreated control cells, set at 100% viability.
(§2) Values generated for IC50 and for the dual-drug CI were determined using CompuSyn software. […] For cell viability assays, a one-way ANOVA was performed to determine significant changes after treatments compared to control cell viability, set at 100%.

MTT cytotoxicity assay = assay type: cell-based, human; settings: human, SH-SY5Y neuroblastoma cells; read-out: Cell Cytotoxicity Log IC50 (converted)
Procedure: as §1, §2

[3] = compared to tacrine or berberine; cited from earlier work

| Structure (SMILES) | IC50 [1] | concentration needed to reduce cell viability (induce toxicity) [2] | IC50 at 48 h (MTT cytotoxicity assay) | oral bioavailability [3] |
| --- | --- | --- | --- | --- |
| COc1ccc2cc3[n+](cc2c1OC)CCc1cc2c(cc1-3)OCO2 [Ber, berberine hydrochloride] | 3.23 µM | ≥ 1 µM | 955 µg/mL |  |
| COc1ccc2c3c1O[C@H]1C[C@@H](O)C=C[C@@]31CCN(C)C2 [Gal, galantamine hydrobromide] |  | ≥ 100 µM | 12600 µg/mL | relatively high |
| Nc1c2c(nc3ccccc13)CCCC2 [Tac, tacrine hydrochloride] |  | at least 10 µM | 339 µg/mL |  |
